Data from patent publication EP0658342A1, “Antineoplastic pharmaceutical composition containing a fumagillol derivative” (Takeda Chemical Industries, Ltd., priority 1993, dated 1995).

System: Hormone-independent human prostatic cancer PC-3 strain cells
Experiment: Tumor growth inhibitory activity against subcutaneously transplanted PC-3 tumors in Balb/c nu/nu mice (Experiments 1 and 2)
Format: in vivo
Conditions: one-week intervals from 17th day; for Tumor size gain (mm³) mean±SD: Experiment 1, s.c. PC-3, Compound A 100 mg/kg s.c. (maltosyl-β-cyclodextrin inclusion compound), gain over size at first administration; for Tumor size ratio (T/C %): treated vs control group; for Tumor size gain (mm³) means±SD: Experiment 2, s.c. PC-3, Compound A 100 mg/kg s.c. (maltosyl-β-cyclodextrin inclusion compound)
Experimental: Hormone-independent human prostatic cancer PC-3 strain cells (hereinafter abbreviated as PC-3 cells) subcultured in vitro using a petri dish for tissue culture were removed from the dish wall by using 0.25% trypsin. The cells thus obtained were rinsed with Ham F-12K medium containing 10% serum and suspended in PBS (phosphate-buffered saline) so that the concentration of the cells became 3 x 10⁷/ml, and 100 µl of the resulting suspension was transplanted to the central part of the right side of the abdomens of Balb/c nu/nu mice (9 weeks old, male) with an injection syringe (25G needle). The tumor size was determined on the 17th day. The mice were divided into groups so that the mean tumor size of each groups was 96 to 97 mm³. Then administration of the drug prepared by the following method was started. The tumor size was determined with a caliper in terms of the major axis (a) and minor axis (b), and calculated from the following formula: 0.5 x a x b².
A 5% glucose solution was added to an inclusion compound of Compound A and maltosyl-β-cyclodextrin obtained in Reference Example 1 to adjust a dosage volume to 10 µl/g body weight of each mouse, and the resulting solution was administered to dorsal subcutaneous parts of mice.
The injection Randa (trade name, manufactured by Nippon Kayaku K.K., Japan) was used as cisplatin, dissolved in saline, adjusted to a dosage volume of 10 µl/g body weight of each mouse, and intraperitoneally administered to mice.
In the case of administration of Compound A alone and cisplatin alone, the first administration was carried out on the 17th day after the transplantation, and thereafter administrations were carried out at one-week intervals. In the case of concomitant administration of Compound A and cisplatin, cisplatin was administered on the 17th day after the transplantation, and Compound A was administered on the 21th day after the transplantation. Thereafter, each drug was administered at one-week intervals.
Tumor growth inhibitory activity was evaluated on the 49th day after the transplantation as follows. Each tumor size was determined on the 49th day, the tumor size on the day of the first administration was subtracted from the size on the 49th day, and the ratio (T/C%) of the tumor size of the drug administration group (T) to that of the control group (C) was calculated. The dose of the drug is indicated in terms of the weight of the drug (mg/kg body weight) per administration.
Mice bearing PC-3 cancer cells were prepared according to the same manner as that in Experiment 1. The tumor size was determined on the 17th day after the transplantation. Mice were divided into groups so that the average tumor size of each group was 108 to 109 mm³. Then drug administration was started. Preparation of the drug, determination of the tumor size, evaluation of tumor growth inhibitory activity, etc., were carried out according to the methods of Experiment 1.
In the case of administration of Compound A alone and cisplatin alone, the first administration was carried out on the 17th day after the transplantation, and thereafter administrations were carried out at one-week intervals.
The following three combinations of the drugs were administered. Cisplatin and Compound A were administered on the 17th day and 21th day after the transplantation, respectively, and thereafter each drug was administered at one-week intervals. These administrations are hereinafter referred to as Combination 1. Compound A and cisplatin were administered on the 17th day and 21th day after the transplantation, respectively, and thereafter each drug was administered at one-week intervals. These administrations are hereinafter referred to as Combination 2. Compound A and cisplatin were administered simultaneously on the 17th day after the transplantation, and thereafter each drug was administered at on-week intervals. These administrations are hereinafter referred to as Combination 3. […]

[1] = cisplatin 4 mg/kg i.p., evaluated 49th day
[2] = Experiment 1, s.c. PC-3, Compound A 100 mg/kg s.c., cisplatin 4 mg/kg i.p., evaluated 49th day
[3] = cisplatin 5 mg/kg i.p., evaluated 42th day
[4] = Experiment 2, s.c. PC-3, Compound A 100 mg/kg s.c., cisplatin 5 mg/kg i.p., evaluated 42th day

Row | Compound | Tumor size gain (mm³) mean±SD [1] | Tumor size ratio (T/C %) [2] | Tumor size gain (mm³) means±SD [3] | Tumor size ratio (T/C %) [4]
1 | 6-O-(N-chloroacetylcarbamoyl)fumagillol [Compound A] | 591±242 mm³ | 49% | 400±126 mm³ | 30%
2 | N.N.[Cl][Pt][Cl] [Cisplatin, cisplatin] | 230±182 mm³ | 19% | 345±163 mm³ | 26%
